US12703729B2, “GIP agonist compounds and methods” (Zealand Pharma A/S, priority 2014, dated 2026)
Starred links: 1 amine or outer side, 2 acyl side, 3 side chain; linkers in the order of their positions; H or OH if unused. Non-standard residues stand in square brackets, D forms with d. Residues, ends and D or L forms follow the SMILES beside them. Groups on a side chain read outwards from the residue. *: point of attachment. X1 = O=C(O)CCCCCCCCCCCCCCCCCCC(=O)N1CCN(CC(=O)*)CC1; C20 diacid = O=C(O)CCCCCCCCCCCCCCCCCCC(=O)*; γGlu = O=C(O)[C@H](CCC(=O)[*:2])N[*:1]; AEEA = NCCOCCOCC(=O)O; Aib = CC(C)(N)C(=O)O

Tests used:
[1] = male, C57BL/6J, mouse, in vivo
in vivo = settings: male, C57BL/6J, mouse; for bioavailability: Bioavailability s.c.; for half-life: 200 nmol/kg
human GIP R = biological target: T1, human GIP R (Homo sapiens, UniProt P48546); assay: cell-based
T1 sequence (P48546 22-466): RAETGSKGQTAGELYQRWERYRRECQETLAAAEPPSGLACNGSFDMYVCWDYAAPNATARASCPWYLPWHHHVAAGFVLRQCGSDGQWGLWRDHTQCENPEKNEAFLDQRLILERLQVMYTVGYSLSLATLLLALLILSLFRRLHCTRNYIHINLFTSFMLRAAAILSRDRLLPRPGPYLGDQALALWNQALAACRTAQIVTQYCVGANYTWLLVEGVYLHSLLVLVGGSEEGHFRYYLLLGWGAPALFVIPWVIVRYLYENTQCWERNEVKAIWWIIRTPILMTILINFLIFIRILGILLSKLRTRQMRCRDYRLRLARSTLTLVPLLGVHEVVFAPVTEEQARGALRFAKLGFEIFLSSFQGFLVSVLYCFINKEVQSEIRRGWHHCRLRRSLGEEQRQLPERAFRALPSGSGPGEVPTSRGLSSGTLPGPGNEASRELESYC

[2] = biological target: human GLP-1 receptor (GLP-1R) (Homo sapiens, UniProt P43220); assay: Activity assay at human GLP-1 receptor, cAMP induction (AlphaScreen), Example 3
Sequence of human GLP-1 receptor (GLP-1R) (P43220 24-463): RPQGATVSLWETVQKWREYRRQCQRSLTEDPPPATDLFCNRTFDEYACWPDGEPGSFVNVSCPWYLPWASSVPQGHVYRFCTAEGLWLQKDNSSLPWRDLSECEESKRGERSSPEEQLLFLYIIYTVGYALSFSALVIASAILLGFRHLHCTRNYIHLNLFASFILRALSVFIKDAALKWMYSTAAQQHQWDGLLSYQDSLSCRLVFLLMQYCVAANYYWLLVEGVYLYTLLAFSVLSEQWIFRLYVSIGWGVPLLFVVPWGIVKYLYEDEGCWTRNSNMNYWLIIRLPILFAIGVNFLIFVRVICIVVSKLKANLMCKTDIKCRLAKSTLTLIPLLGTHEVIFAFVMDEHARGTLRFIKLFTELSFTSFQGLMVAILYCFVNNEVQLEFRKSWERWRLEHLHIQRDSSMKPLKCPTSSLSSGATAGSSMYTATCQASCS

[3] = biological target: T2, human GIP receptor (GIP R) (Homo sapiens, UniProt P48546); assay: Activity assay at human GIP receptor, cAMP induction (AlphaScreen), Example 3
T2 sequence (P48546 22-466): T1 sequence (P48546 22-466)

[4] = iv, Terminal elimination half-life T½ i.v.
[5] = sc, Terminal elimination half-life T½ s.c.

SMILES	Bioavailability s.c. [1] [%]	Terminal elimination half-life T½ i.v. ([1]; iv, 200 nmol/kg) [h]	Terminal elimination half-life T½ s.c. ([1]; sc, 200 nmol/kg) [h]	bioavailability (in vivo) [%]	half-life (in vivo; [4]) [h]	Tmax (in vivo; sc) [h]	half-life (in vivo; [5]) [h]	EC50 (human GIP R) [nM]	EC50 [2] [nM]	EC50 [3] [nM]
CC[C@H](C)[C@H](NC(=O)[C@H](CCCCN)NC(=O)[C@H](CC(=O)O)NC(=O)[C@H](CC(C)C)NC(=O)[C@H](CCC(=O)O)NC(=O)[C@@H](NC(=O)[C@H](CO)NC(=O)[C@H](Cc1ccc(O)cc1)NC(=O)[C@H](CC(=O)O)NC(=O)[C@H](CO)NC(=O)[C@@H](NC(=O)[C@H](Cc1ccccc1)NC(=O)[C@@H](NC(=O)CNC(=O)[C@H](CCC(=O)O)NC(=O)C(C)(C)NC(=O)[C@@H](N)Cc1ccc(O)cc1)[C@@H](C)O)[C@@H](C)CC)[C@@H](C)CC)C(=O)N[C@@H](C)C(=O)N[C@@H](C)C(=O)N[C@@H](CCC(N)=O)C(=O)N[C@@H](CC(=O)O)C(=O)N[C@@H](Cc1ccccc1)C(=O)N[C@H](C(=O)N[C@@H](CC(N)=O)C(=O)N[C@@H](Cc1c[nH]c2ccccc12)C(=O)N[C@@H](CC(C)C)C(=O)N[C@@H](CC(C)C)C(=O)N[C@@H](C)C(=O)NCC(=O)N1CCC[C@H]1C(=O)N[C@@H](CO)C(=O)N[C@@H](CO)C(=O)NCC(=O)N[C@@H](C)C(=O)N1CCC[C@H]1C(=O)N1CCC[C@H]1C(=O)N1CCC[C@H]1C(=O)N[C@@H](CO)C(=O)N[C@@H](CCCCNC(=O)COCCOCCNC(=O)COCCOCCNC(=O)CC[C@H](NC(=O)CCCCCCCCCCCCCCCCCCC(=O)O)C(=O)O)C(N)=O)C(C)C [Compound 16] (H-Y[Aib]EGTFISDYSIELDKIAAQDFVNWLLAGPSSGAPPPSK([AEEA-AEEA-γGlu-C20 diacid])-NH2)	88	19.2	16.7	81	23.3	8	23.6	0.016	> 10	0.012
CC[C@H](C)[C@H](NC(=O)[C@H](CO)NC(=O)[C@H](Cc1ccc(O)cc1)NC(=O)[C@H](CC(=O)O)NC(=O)[C@H](CO)NC(=O)[C@@H](NC(=O)[C@H](Cc1ccccc1)NC(=O)[C@@H](NC(=O)CNC(=O)[C@H](CCC(=O)O)NC(=O)C(C)(C)NC(=O)[C@@H](N)Cc1ccc(O)cc1)[C@@H](C)O)[C@@H](C)CC)C(=O)N[C@@H](CCC(=O)O)C(=O)N[C@@H](CC(C)C)C(=O)N[C@@H](CC(=O)O)C(=O)N[C@@H](CCCCN)C(=O)N[C@@H](CCCCNC(=O)COCCOCCNC(=O)COCCOCCNC(=O)CC[C@H](NC(=O)CCCCCCCCCCCCCCCCCCC(=O)O)C(=O)O)C(=O)N[C@@H](C)C(=O)N[C@@H](C)C(=O)N[C@@H](CCC(N)=O)C(=O)N[C@@H](CC(=O)O)C(=O)N[C@@H](Cc1ccccc1)C(=O)N[C@H](C(=O)N[C@@H](CC(N)=O)C(=O)N[C@@H](Cc1c[nH]c2ccccc12)C(=O)N[C@@H](CC(C)C)C(=O)N[C@@H](CC(C)C)C(=O)N[C@@H](C)C(=O)NCC(=O)N1CCC[C@H]1C(=O)N[C@@H](CO)C(=O)N[C@@H](CO)C(=O)NCC(=O)N[C@@H](C)C(=O)N1CCC[C@H]1C(=O)N1CCC[C@H]1C(=O)N1CCC[C@H]1C(=O)N[C@@H](CO)C(N)=O)C(C)C [Compound 15] (H-Y[Aib]EGTFISDYSIELDKK([AEEA-AEEA-γGlu-C20 diacid])AAQDFVNWLLAGPSSGAPPPS-NH2)				87	19.2	8	16.7	0.012	> 100	0.024
CC[C@H](C)[C@H](NC(=O)[C@H](Cc1ccccc1)NC(=O)[C@H](CC(=O)O)NC(=O)[C@H](CCC(N)=O)NC(=O)[C@H](C)NC(=O)[C@H](C)NC(=O)[C@H](CCCCNC(=O)COCCOCCNC(=O)COCCOCCNC(=O)CN1CCN(C(=O)CCCCCCCCCCCCCCCCCCC(=O)O)CC1)NC(=O)[C@H](CCCCN)NC(=O)[C@H](CC(=O)O)NC(=O)[C@H](CC(C)C)NC(=O)[C@H](CCC(=O)O)NC(=O)[C@@H](NC(=O)[C@H](CO)NC(=O)[C@H](Cc1ccc(O)cc1)NC(=O)[C@H](CC(=O)O)NC(=O)[C@H](CO)NC(=O)[C@@H](NC(=O)[C@H](Cc1ccccc1)NC(=O)[C@@H](NC(=O)CNC(=O)[C@H](CCC(=O)O)NC(=O)C(C)(C)NC(=O)[C@@H](N)Cc1ccc(O)cc1)[C@@H](C)O)[C@@H](C)CC)[C@@H](C)CC)C(=O)N[C@@H](CCC(=O)O)C(=O)N[C@@H](Cc1c[nH]c2ccccc12)C(=O)N[C@@H](CC(C)C)C(=O)N[C@@H](CC(C)C)C(=O)N[C@@H](C)C(=O)NCC(=O)N1CCC[C@H]1C(=O)N[C@@H](CO)C(=O)N[C@@H](CO)C(=O)NCC(=O)N[C@@H](C)C(=O)N1CCC[C@H]1C(=O)N1CCC[C@H]1C(=O)N1CCC[C@H]1C(=O)N[C@@H](CO)C(N)=O [Compound 33] (H-Y[Aib]EGTFISDYSIELDKK([AEEA-AEEA-X1])AAQDFIEWLLAGPSSGAPPPS-NH2)				78	21.7	8	18.7	0.014	> 10	0.02
